Laboratory results published in ChEMBL document CHEMBL1268819, “Design, synthesis, and biological evaluation of 4-(5-nitrofuran-2-yl)prop-2-en-1-one derivatives as potent antitubercular agents” (Bioorg Med Chem Lett, 2010).
≈ marks a conversion by molar mass, not a printed value.

Experiments:
[1] = tested on: Mycobacterium tuberculosis; assay: Antitubercular activity against Mycobacterium tuberculosis H37Rv by resazurin microtiter assay; assay type: functional
[2] = Toxicity in African green monkey Vero cells; assay type: cell-based; conditions: chlorocebus sabaeus
[3] = Selectivity index, ratio of CC50 for African green monkey Vero cells to MIC for Mycobacterium tuberculosis H37Rv; assay type: functional

Structure (SMILES)	MIC [1] [µM]	CC50 [2] [µM]	Selectivity Index [3]
O=C(/C=C/c1ccc([N+](=O)[O-])o1)c1ccc(Br)cc1	3.88 (≈ 1.25 µg/mL)	354	–
O=C(/C=C/c1ccc([N+](=O)[O-])o1)c1ccc(Cl)cc1	4.5 (≈ 1.25 µg/mL)	558	–
O=C(/C=C/c1ccc([N+](=O)[O-])o1)c1ccccc1	5.51 (≈ 1.34 µg/mL)	444	–
O=C(/C=C/c1ccc([N+](=O)[O-])o1)c1ccc(F)cc1	4.17 (≈ 1.09 µg/mL)	463	–
O=C(/C=C/c1ccco1)c1ccc(F)cc1	> 93.9	661	–
Cc1ccc(C(=O)/C=C/c2ccc([N+](=O)[O-])o2)cc1	4.35 (≈ 1.12 µg/mL)	439	–
COc1ccc(C(=O)/C=C/c2ccc([N+](=O)[O-])o2)cc1	3.84 (≈ 1.05 µg/mL)	571	–
O=C(/C=C/c1ccc([N+](=O)[O-])o1)c1ccc(Cl)cc1Cl	14.1 (≈ 4.41 µg/mL)	417	–
O=C(/C=C/c1ccc([N+](=O)[O-])o1)c1cccs1	5.86 (≈ 1.46 µg/mL)	742	–
O=C(/C=C/c1ccc([N+](=O)[O-])o1)c1ccco1	8.28 (≈ 1.93 µg/mL)	776	–
O=C(/C=C/c1ccc([N+](=O)[O-])s1)c1ccc(N2CCCCC2)cc1	15.6 (≈ 5.35 µg/mL)	404	–
COc1cc(C(=O)/C=C/c2ccc([N+](=O)[O-])o2)cc(OC)c1OC	6.06 (≈ 2.02 µg/mL)	384	–
O=C(/C=C/c1ccc([N+](=O)[O-])o1)c1cc2ccccc2oc1=O	29.9 (≈ 9.32 µg/mL)	360	–
O=C(/C=C/c1ccc([N+](=O)[O-])o1)c1ccc(OCc2ccccc2)cc1	3.29 (≈ 1.15 µg/mL)	515	–
O=C(/C=C/c1ccc([N+](=O)[O-])o1)c1ccc(OCc2ccc(F)cc2)cc1	19.8 (≈ 7.27 µg/mL)	430	–
COc1ccc(COc2ccc(C(=O)/C=C/c3ccc([N+](=O)[O-])o3)cc2)cc1	1.85 (≈ 0.702 µg/mL)	311	–
O=C(/C=C/c1ccc([N+](=O)[O-])o1)c1ccc(OCc2ccc(Cl)cc2Cl)cc1	> 46.6	340	–
O=C(/C=C/c1ccc([N+](=O)[O-])o1)c1ccc(OCc2cccc(Cl)c2)cc1	6.1 (≈ 2.34 µg/mL)	307	–
O=C(/C=C/c1ccc([N+](=O)[O-])o1)c1ccc(OCc2ccc(OC(F)(F)F)cc2)cc1	1.66 (≈ 0.719 µg/mL)	335	–
C=C(C)COc1ccc(C(=O)/C=C/c2ccc([N+](=O)[O-])o2)cc1	5.59 (≈ 1.75 µg/mL)	393	–
O=C(/C=C/c1ccc([N+](=O)[O-])o1)c1ccc(N2CCN(Cc3ccccc3)CC2)cc1	> 31.7	299	–
O=C(/C=C/c1ccc([N+](=O)[O-])o1)c1ccc(N2CCN(C/C=C/c3ccccc3)CC2)cc1	> 32.7	343	–
CCN(CC)c1ccc(C(=O)/C=C/c2ccc([N+](=O)[O-])o2)cc1	0.48 (≈ 0.151 µg/mL)	334	–
O=C(/C=C/c1ccc([N+](=O)[O-])o1)c1ccc(N2CCCCC2)cc1	0.19 (≈ 0.062 µg/mL)	349	>1800
O=C(/C=C/c1ccc([N+](=O)[O-])o1)c1ccc(N2CCOCC2)cc1	0.38 (≈ 0.125 µg/mL)	387	–
NNC(=O)c1ccncc1 [ISONIAZID]	1.8 (≈ 0.247 µg/mL)	> 500	–
